In patent EP4792813A1, “USE OF […] PREPARATION OF DRUG FOR PREVENTING AND TREATING SEPSIS AND SEPSIS-INDUCED ORGAN DAMAGE” (Lunan Pharmaceutical Group Corporation, priority 2023, dated 2025):

Experiments:
Assay type in all cases: in vivo, C57BL/6J mice
[1] = test system: mice with LPS-induced sepsis; test: Serum inflammatory factors (ELISA) in mice with LPS-induced sepsis; conditions: for serum inflammatory factor indices: result in words, compared with the model group; for IL-6 / TNF-α: serum, 24 h after LPS, x±s, n = 6
Procedure: (§1) After 1 week of acclimatization, mice were randomly divided into 8 groups: normal group, model group, positive control group, control group 1, control group 2, and compound I low-, medium- and high-dose groups, with 20 mice in each group. […] After the experiment was started, the normal group and model group were intraperitoneally injected with normal saline according to the body weight. The positive control group was intraperitoneally injected with 1 mg/kg dexamethasone. The Compound I low-, medium- and high-dose groups were intraperitoneally injected with 1 mg/kg, 2.5 mg/kg and 5 mg/kg compound I according to the body weight, respectively. The control group 1 was intraperitoneally injected with 5 mg/kg control compound 1 according to the body weight, and the control group 2 was intraperitoneally injected with 5 mg/kg control compound 2 according to the body weight. After 1 h, the normal group was intraperitoneally injected with normal saline according to the body weight, and the model group and each administration group were injected with 20 mg/kg LPS and then dissected 24 h later.
The blood samples were allowed to stand at room temperature for 1 h, followed by centrifugation at 3000 r/min to obtain serum. The serum was divided into two aliquots. One aliquot was processed in accordance with the instructions of TNF-α and IL-1β ELISA kits. Each well was measured at 450 nm using a microplate reader. The OD value of each sample was determined by subtracting the absorbance of the blank control well from the measured value. A standard curve was plotted based on the concentrations and OD values of standard samples to calculate the concentrations of the samples.

[2] = test system: mice with LPS-induced sepsis; test: Serum biochemical parameters (ALT, AST, UREA, CREA-S) in mice with LPS-induced sepsis; design: CREA-S: unit not given here; conditions: for serum ALT, AST, UREA and CREA-S levels: result in words, compared with the model group; for ALT / AST / CREA-S / UREA: serum, 24 h after LPS, x±s, n = 7
Procedure: as §1
A series of operations were performed on the serum in accordance with the instructions of the kits to detect ALT, AST, UREA and CREA-S concentrations.

[3] = test system: mice with LPS-induced sepsis-associated encephalopathy; test: Nissl staining of hippocampus in mice with LPS-induced sepsis-associated encephalopathy; conditions: 1, 2.5 and 5 mg/kg i.p. 1 h before 25 mg/kg LPS; 24 h; compared with the model group
Procedure: (§2) After 1 week of acclimatization, 60 male C57BL/6J mice were randomly divided into five groups: normal group, model group, Compound I low-dose group, Compound I medium-dose group and Compound I high-dose group, with 12 mice per group.
(§3) After the experiment was started, the normal group and model group were intraperitoneally injected with normal saline according to the body weight. The Compound I low-, medium- and high-dose groups were intraperitoneally injected with 1 mg/kg, 2.5 mg/kg and 5 mg/kg Compound I according to the body weight, respectively. After 1 h, the normal group was intraperitoneally injected with a corresponding volume of normal saline according to the body weight of the mice, while the model group and each administration group were injected with 25 mg/kg LPS. The administration volume was 10 mL/kg. After 24 h, the mice were anesthetized with pentobarbital sodium. The skull was opened and the brain was harvested, rinsed with normal saline, blotted dry with filter paper, and weighed. The brain index was calculated based on the following formula: Brain index = brain weight/body weight × 100% [formula]
The prepared sections were dried and dewaxed, and then stained with a Nissl staining solution for 90 min. […]

[4] = test system: mice with LPS-induced sepsis-associated encephalopathy; test: Brain index in mice with LPS-induced sepsis-associated encephalopathy; conditions: 1, 2.5 and 5 mg/kg i.p. 1 h before 25 mg/kg LPS; 24 h; compared with the model group (p<0.01)
Procedure: as §2, §3

[5] = test system: mice with LPS-induced sepsis-associated encephalopathy; test: Eight-arm maze test in mice with LPS-induced sepsis-associated encephalopathy; conditions: compared with the model group
Procedure: After 1 week of acclimatization, 60 male C57BL/6J mice were randomly divided into five groups: normal group, model group, compound I low-dose group, Compound I medium-dose group and Compound I high-dose group, with 12 mice in each group.
After the experiment was started, the normal group and model group were intraperitoneally injected with normal saline according to the body weight. The Compound I low-, medium- and high-dose groups were intraperitoneally injected with 1 mg/kg, 2.5 mg/kg and 5 mg/kg compound I, respectively. After 1 h, the normal group was intraperitoneally injected with a corresponding volume of normal saline according to the body weight of the mice, while the model group and each administration group were injected with 10 mg/kg LPS, with an administration volume of 10 mL/kg.
Behavioral tests were performed in an automated eight-arm maze. Before the experiment was started, all the mice were required to undergo acclimatization training. The food intake of the mice was restricted daily to facilitate the rapid finding and memorization of food pellets placed in the 1st, 2nd, 4th and 7th arms during the test. On day 1, an equal amount of food pellets was placed in each arm. The mice were placed in the maze and then allowed to explore freely for 300 s before acclimatization was terminated. Starting from day 2, the automatic doors were first closed, and the mice were placed in the center of the maze for 15 s. The automatic doors were then opened to release the mice for testing. The training was terminated when the time reached 300 s or the mice found the food pellets. The training was conducted for a total of five days. Working memory errors were defined as repeated entries by the mice into arms where food pellets had already been found and consumed. Reference memory errors were defined as entries into arms without food pellets. The total number of arm entries was recorded as the total arm entries. The time required for the mice to find all food pellets was defined as the test duration. On the day 7 of the experiment, a formal trial was initiated, and this step unchanged. The frequencies of working memory errors and reference memory errors were calculated based on the recorded working memory errors, reference memory errors and total arm entries.

[6] = test system: mice with LPS-induced sepsis-associated encephalopathy; test: Novel object recognition test in mice with LPS-induced sepsis-associated encephalopathy; conditions: 1, 2.5 and 5 mg/kg i.p. on days 1-3, 7.5 mg/kg LPS on days 1 and 2; compared with the model group; FIG. 6
Procedure: as §2
On day 1 of the experiment, the normal group and model group were intraperitoneally injected with normal saline according to the body weight. The Compound I low-, medium- and high-dose groups were intraperitoneally injected with 1 mg/kg, 2.5 mg/kg and 5 mg/kg Compound I according to the body weight, respectively. After 1 h, the normal group was intraperitoneally injected with a corresponding volume of normal saline according to the body weight of the mice, while the model group and each administration group were injected with 7.5 mg/kg LPS. The administration volume was 10 mL/kg.
On day 2 of the experiment, the operations on day 1 were repeated. […]
The mice were individually placed in a square arena (40 × 40 × 40 cm) and allowed to move freely for 10 min. […] The time and frequency of mice contacting the objects or exploring within 2 cm of the objects (forepaws on the object, nose sniffing, or licking the object) were recorded. The preference index (PI) and discrimination index were calculated. […]

[7] = test system: mice with LPS-induced sepsis; test: 48 h survival rate of mice with LPS-induced sepsis; conditions: within 48 h after 20 mg/kg LPS; result in words; FIG. 2
Procedure: as §1
4.4 After 48 h, the survival rate of the remaining 10 mice in each group was observed.

[8] = test system: mice with LPS-induced sepsis; test: HE staining of kidney tissue sections in mice with LPS-induced sepsis; conditions: 24 h after intraperitoneal injection of 20 mg/kg LPS, compared with the model group, FIG. 1
Procedure: as §1
Mouse kidney tissue sections were stained using a hematoxylin-eosin (HE) staining method. First, the baked sections were dewaxed using xylene until the sections became transparent. The dewaxed sections were rinsed with ethanol to remove xylene and then rinsed with distilled water. […]

[9] = 5 mg/kg i.p. 1 h before 20 mg/kg LPS
[10] = 1 mg/kg i.p. 1 h before 20 mg/kg LPS
[11] = 1, 2.5 and 5 mg/kg i.p. 1 h before 10 mg/kg LPS, best effect in medium-dose group, FIG. 5
[12] = 2.5 mg/kg i.p. 1 h before 20 mg/kg LPS

| Structure (SMILES) | serum inflammatory factor indices [1, 9] | IL-6 [1, 9] [pg] | TNF-α [1, 9] [pg] | serum ALT, AST, UREA and CREA-S levels [2, 9] | ALT [2, 9] [U/L] | AST [2, 9] [U/L] | CREA-S [2, 9] | UREA [2, 9] [mmol/L] | IL-6 [1, 10] [pg] | TNF-α [1, 10] [pg] | ALT [2, 10] [U/L] | AST [2, 10] [U/L] | UREA [2, 10] [mmol/L] | other results |
| --- | --- | --- | --- | --- | --- | --- | --- | --- | --- | --- | --- | --- | --- | --- |
| O=C(c1cccc(O)c1)N1CCC(c2nc3cc(Cl)ccc3o2)CC1 [Control group 2] | no significant improvements | 24.56 ± 3.56 | 238.20 ± 9.79 | no significant improvements | 77.76 ± 12.51 | 265.20±31.82 | 43.99 ± 5.81 | 47.22 ± 3.39 | – | – | – | – | – | – |
| O=C(Nc1cccc(Cl)c1)C1CCN(C(=O)c2ccc3ccccc3c2)CC1 [Control group 1] | no significant improvements | 24.72 ± 4.03 | 244.20 ± 10.95 | no significant improvements | 78.19 ± 10.95 | 271.1 ± 25.31 | – | 46.47 ± 4.58 | – | – | – | – | – | – |
| C[C@@H]1C[C@H]2[C@@H]3CCC4=CC(=O)C=C[C@]4(C)[C@@]3(F)[C@@H](O)C[C@]2(C)[C@@]1(O)C(=O)CO [Positive control group, dexamethasone] | – | – | – | – | – | – | – | – | 16.49 ± 1.38 | 79.27 ± 4.86 | 58.94 ± 7.12 | 142.8 ± 21.78 | 20.69 ± 5.68 | – |
| Cn1c(C(=O)N2CCC(C(=O)Nc3cccc(Cl)c3)CC2)cc2ccccc21 [Compound I, N-(3-chlorophenyl)-1-(1-methyl-1H-indole-2-carbonyl)piperidine-4-carboxamide] | – | 17.04 ± 2.94 | 14.00 ± 2.29 | – | 59.61 ± 6.89 | 137.50 ± 26.26 | 20.80 ± 7.59 | 22.69 ± 10.33 | 20.10 ± 3.28 | 127.00 ± 16.42 | 69.44 ± 16.93 | 183.40 ± 37.18 | 35.56 ± 8.88 | Nissl staining of the hippocampus region of the mouse brain tissue [3]: reduced neuronal pyknosis, recovered cell morphology and normal Nissl bodies; brain index [4]: significantly reduced; frequency of reference memory errors [5, 11]: decreased; frequency of working memory errors [5, 11]: decreased; test duration ([5]; medium- and high-dose groups (2.5 and 5 mg/kg i.p.), 10 mg/kg LPS): decreased; total numbers of arm entries ([5]; medium- and high-dose groups (2.5 and 5 mg/kg i.p.), 10 mg/kg LPS, most significant reduction in medium-dose group): decreased; IL-6 [1, 12]: 17.60 ± 3.20 pg; TNF-α [1, 12]: 76.30 ± 6.77 pg; discrimination index [6]: increased; preference index [6]: increased; survival rate [7]: significantly improve the survival rate; CREA-S [2, 10]: 21.07 ± 5.89; ALT [2, 12]: 67.83 ± 19.01 U/L; AST [2, 12]: 180.20 ± 54.87 U/L; CREA-S [2, 12]: 18.64 ± 6.72; UREA [2, 12]: 26.02 ± 9.03 mmol/L; changes of renal tubules (abnormal dilation of renal tubules, atrophy of epithelial cells and lightening of cytoplasm), HE staining [8]: significantly ameliorated |
